Test results taken from patent US11046671B2, “Dihydropyrimidinyl benzazepine carboxamide compounds” (Hoffmann-La Roche Inc., priority 2016, dated 2021).
pEC50: −log10 of the molar value.

How the values were obtained:
human TLR8 = human TLR8 (Homo sapiens (Human), UniProt Q9NR97); assay: HEK-Blue human TLR8 cells, NF-κB SEAP reporter assay; assay type: cell-based; settings: 20 hours stimulation
Source text: (§1) For TLR8 and TLR7 activity testing, HEK-Blue human TLR8 or TLR7 cells (Invivogen, San Diego, Calif., USA) are used, respectively. These cells are designed for studying the stimulation of human TLR8 or TLR7 by monitoring the activation of NF-κB. A SEAP (secreted embryonic alkaline phosphatase) reporter gene is placed under the control of the IFN-b minimal promoter fused to five NF-κB and AP-1-binding sites. Therefore the reporter expression is regulated by the NF-κB promoter upon stimulation of human TLR8 or TLR7 for 20 hours. The cell culture supernatant SEAP reporter activity was determined using Quanti Blue kit (Invivogen, San Diego, Ca, USA) at a wavelength of 640 nm, a detection medium that turns purple/blue in the presence of alkaline phosphatase. EC50 values were determined using Activity Base analysis (ID Business Solution, Limited).

human TLR7 = human TLR7 (Homo sapiens (Human), UniProt Q9NYK1); assay: HEK-Blue human TLR7 cells, NF-κB SEAP reporter assay; assay type: cell-based; settings: 20 hours stimulation
human TLR7, sequence (Q9NYK1 27-1049): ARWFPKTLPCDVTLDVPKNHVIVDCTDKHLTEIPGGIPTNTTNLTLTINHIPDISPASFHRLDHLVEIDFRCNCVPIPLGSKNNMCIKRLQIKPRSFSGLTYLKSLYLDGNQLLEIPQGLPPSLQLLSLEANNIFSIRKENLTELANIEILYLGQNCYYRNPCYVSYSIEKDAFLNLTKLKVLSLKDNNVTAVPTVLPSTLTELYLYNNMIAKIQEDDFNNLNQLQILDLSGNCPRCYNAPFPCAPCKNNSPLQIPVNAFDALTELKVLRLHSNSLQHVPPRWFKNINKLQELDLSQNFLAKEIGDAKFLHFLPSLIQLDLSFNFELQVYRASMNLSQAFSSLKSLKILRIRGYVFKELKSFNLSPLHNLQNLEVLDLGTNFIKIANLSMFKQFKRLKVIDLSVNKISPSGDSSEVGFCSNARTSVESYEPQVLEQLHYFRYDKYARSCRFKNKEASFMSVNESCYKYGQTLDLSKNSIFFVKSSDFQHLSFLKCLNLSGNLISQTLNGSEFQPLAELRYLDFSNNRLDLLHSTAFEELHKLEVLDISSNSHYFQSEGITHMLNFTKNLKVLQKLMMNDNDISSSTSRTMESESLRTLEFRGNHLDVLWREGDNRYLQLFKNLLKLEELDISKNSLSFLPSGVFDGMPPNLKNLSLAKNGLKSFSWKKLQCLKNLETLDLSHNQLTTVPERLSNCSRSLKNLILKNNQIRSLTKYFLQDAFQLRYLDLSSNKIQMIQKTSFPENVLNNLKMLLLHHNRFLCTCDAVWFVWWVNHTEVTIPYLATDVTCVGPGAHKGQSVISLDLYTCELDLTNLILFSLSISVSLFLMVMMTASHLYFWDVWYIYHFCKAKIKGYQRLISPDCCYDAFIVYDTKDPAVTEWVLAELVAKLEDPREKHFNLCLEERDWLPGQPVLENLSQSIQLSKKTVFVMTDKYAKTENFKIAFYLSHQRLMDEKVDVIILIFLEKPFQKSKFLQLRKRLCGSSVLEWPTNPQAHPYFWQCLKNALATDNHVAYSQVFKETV
Source text: as §1

human TLR8, sequence (Q9NR97 27-1041): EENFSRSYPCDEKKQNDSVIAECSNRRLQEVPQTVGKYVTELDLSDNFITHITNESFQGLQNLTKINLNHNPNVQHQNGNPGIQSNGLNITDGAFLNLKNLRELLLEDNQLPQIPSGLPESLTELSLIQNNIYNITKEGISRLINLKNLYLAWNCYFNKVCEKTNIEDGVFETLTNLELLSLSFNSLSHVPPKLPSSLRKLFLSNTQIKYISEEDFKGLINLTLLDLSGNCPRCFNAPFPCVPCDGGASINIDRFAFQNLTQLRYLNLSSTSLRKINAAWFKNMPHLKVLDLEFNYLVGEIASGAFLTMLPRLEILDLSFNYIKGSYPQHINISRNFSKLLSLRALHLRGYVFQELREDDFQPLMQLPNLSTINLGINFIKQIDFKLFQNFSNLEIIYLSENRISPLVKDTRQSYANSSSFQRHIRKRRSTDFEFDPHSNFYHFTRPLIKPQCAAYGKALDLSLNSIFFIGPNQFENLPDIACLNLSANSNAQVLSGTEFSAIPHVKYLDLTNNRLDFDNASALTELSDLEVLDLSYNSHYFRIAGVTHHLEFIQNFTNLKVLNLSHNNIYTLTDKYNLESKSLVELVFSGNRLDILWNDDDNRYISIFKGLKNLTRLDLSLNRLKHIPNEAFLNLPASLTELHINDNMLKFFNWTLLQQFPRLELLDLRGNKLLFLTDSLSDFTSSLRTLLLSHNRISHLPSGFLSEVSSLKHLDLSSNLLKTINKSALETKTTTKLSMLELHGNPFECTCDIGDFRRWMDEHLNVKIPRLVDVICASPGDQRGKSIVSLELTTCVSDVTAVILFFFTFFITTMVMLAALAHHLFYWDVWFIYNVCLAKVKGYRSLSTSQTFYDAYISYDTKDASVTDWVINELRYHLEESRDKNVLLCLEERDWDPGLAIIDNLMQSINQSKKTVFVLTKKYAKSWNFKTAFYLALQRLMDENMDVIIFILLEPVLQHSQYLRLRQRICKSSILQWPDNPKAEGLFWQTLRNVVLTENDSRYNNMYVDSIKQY

SMILES	pEC50 (human TLR8)	pEC50 (human TLR7)
CCCN(CC(C)C)C(=O)C1=Cc2ccc(C3=NCc4ccccc4N3)cc2N=C(N)C1 [Example 4, 2-Amino-8-(1,4-dihydroquinazolin-2-yl)-N-isobutyl-N-propyl-3H-1-benzazepine-4-carboxamide]	7.96	< 4.00
CCCN(CCC)C(=O)C1=Cc2ccc(C3=NCc4c(Cl)cccc4N3)cc2N=C(N)C1 [Example 5, 2-Amino-8-(5-chloro-1,4-dihydroquinazolin-2-yl)-N,N-dipropyl-3H-1-benzazepine-4-carboxamide]	7.96	
CCCN(CCC)C(=O)C1=Cc2ccc(C3=NCc4ccc(Cl)cc4N3)cc2N=C(N)C1 [Example 6, 2-Amino-8-(7-chloro-1,4-dihydroquinazolin-2-yl)-N,N-dipropyl-3H-1-benzazepine-4-carboxamide]	8.05	< 4.00
CCCN(CCC)C(=O)C1=Cc2ccc(C3=NC(C)(C)c4ccccc4N3)cc2N=C(N)C1 [Example 7, 2-Amino-8-(4,4-dimethyl-1H-quinazolin-2-yl)-N,N-dipropyl-3H-1-benzazepine-4-carboxamide]	8.15	< 4.00
CCCN(CCC)C(=O)C1=Cc2ccc(C3=NCc4cc(Cl)ccc4N3)cc2N=C(N)C1 [Example 8, 2-Amino-8-(6-chloro-1,4-dihydroquinazolin-2-yl)-N,N-dipropyl-3H-1-benzazepine-4-carboxamide]	8.22	< 4.00

Other lines, results leading:

pEC50 (human TLR8)	pEC50 (human TLR7)	SMILES
8.52	< 4.00	CCCN(CCC)C(=O)C1=Cc2ccc(C3=NCc4ccccc4N3)cc2N=C(N)C1 [Example 1, 2-Amino-8-(1,4-dihydroquinazolin-2-yl)-N,N-dipropyl-3H-1-benzazepine-4-carboxamide]
8.52	< 4.00	CCCN(CCC)C(=O)C1=Cc2ccc(C3=NCc4ccncc4N3)cc2N=C(N)C1 [Example 2, 2-Amino-8-(1,4-dihydropyrido[3,4-d]pyrimidin-2-yl)-N,N-dipropyl-3H-1-benzazepine-4-carboxamide]
8.22	< 4.00	CCCN(CC1CC1)C(=O)C1=Cc2ccc(C3=NCc4ccccc4N3)cc2N=C(N)C1 [Example 3, 2-Amino-N-(cyclopropylmethyl)-8-(1,4-dihydroquinazolin-2-yl)-N-propyl-3H-1-benzazepine-4-carboxamide]
9.00	< 4.00	CCCN(CCC)C(=O)C1=Cc2ccc(C3=NCc4c(C)cccc4N3)cc2N=C(N)C1 [Example 9, 2-Amino-8-(5-methyl-1,4-dihydroquinazolin-2-yl)-N,N-dipropyl-3H-1-benzazepine-4-carboxamide]
8.52	< 4.00	CCCN(CCC)C(=O)C1=Cc2ccc(C3=NCc4c(F)cccc4N3)cc2N=C(N)C1 [Example 10, 2-Amino-8-(5-fluoro-1,4-dihydroquinazolin-2-yl)-N,N-dipropyl-3H-1-benzazepine-4-carboxamide]
8.70	< 4.00	CCCN(CCC)C(=O)C1=Cc2ccc(C3=NCc4cc(OC)ccc4N3)cc2N=C(N)C1 [Example 11, 2-Amino-8-(6-methoxy-1,4-dihydroquinazolin-2-yl)-N,N-dipropyl-3H-1-benzazepine-4-carboxamide]
